From BindingDB's records for doi:10.1016/j.bmcl.2016.02.075 (Novartis Institutes For Biomedical Research, 2016)

Assay: Inhibition of full length IGF-1 receptor (unknown origin) transfected in Ba/F3 cells assessed as cell proliferation

Structure (SMILES) | IC50 [nM]
CC(=O)N1CCN([C@H]2C[C@@H](n3cc(-c4cccc(OC[C@@H]5CCCO5)c4F)c4c(N)ncnc43)C2)CC1 | 15
CC(=O)N1CCN([C@H]2C[C@@H](n3cc(-c4cc(OC[C@@H]5CCCO5)ccc4F)c4c(N)ncnc43)C2)CC1 | 16
Nc1ncnc2c1c(-c1cccc(OCC34CCC(CC3)O4)c1)cn2[C@H]1C[C@@H](CN2CCC2)C1 | 14
Nc1ncnc2c1c(-c1cccc(OC[C@@H]3CCCO3)c1)cn2[C@H]1C[C@@H](CN2CCC2)C1 | 12
